The structures appear in SMILES notation.

This assay addresses NaV1.5 (Homo sapiens, UniProt Q14524). The assay can be described thus: manual whole-cell patch clamp in CHL cells stably expressing SCN5A. The format is cell-based. On the technique in general: Patch clamp records ionic current or voltage across a cell membrane.

NaV1.5, sequence (Q14524 whole entry): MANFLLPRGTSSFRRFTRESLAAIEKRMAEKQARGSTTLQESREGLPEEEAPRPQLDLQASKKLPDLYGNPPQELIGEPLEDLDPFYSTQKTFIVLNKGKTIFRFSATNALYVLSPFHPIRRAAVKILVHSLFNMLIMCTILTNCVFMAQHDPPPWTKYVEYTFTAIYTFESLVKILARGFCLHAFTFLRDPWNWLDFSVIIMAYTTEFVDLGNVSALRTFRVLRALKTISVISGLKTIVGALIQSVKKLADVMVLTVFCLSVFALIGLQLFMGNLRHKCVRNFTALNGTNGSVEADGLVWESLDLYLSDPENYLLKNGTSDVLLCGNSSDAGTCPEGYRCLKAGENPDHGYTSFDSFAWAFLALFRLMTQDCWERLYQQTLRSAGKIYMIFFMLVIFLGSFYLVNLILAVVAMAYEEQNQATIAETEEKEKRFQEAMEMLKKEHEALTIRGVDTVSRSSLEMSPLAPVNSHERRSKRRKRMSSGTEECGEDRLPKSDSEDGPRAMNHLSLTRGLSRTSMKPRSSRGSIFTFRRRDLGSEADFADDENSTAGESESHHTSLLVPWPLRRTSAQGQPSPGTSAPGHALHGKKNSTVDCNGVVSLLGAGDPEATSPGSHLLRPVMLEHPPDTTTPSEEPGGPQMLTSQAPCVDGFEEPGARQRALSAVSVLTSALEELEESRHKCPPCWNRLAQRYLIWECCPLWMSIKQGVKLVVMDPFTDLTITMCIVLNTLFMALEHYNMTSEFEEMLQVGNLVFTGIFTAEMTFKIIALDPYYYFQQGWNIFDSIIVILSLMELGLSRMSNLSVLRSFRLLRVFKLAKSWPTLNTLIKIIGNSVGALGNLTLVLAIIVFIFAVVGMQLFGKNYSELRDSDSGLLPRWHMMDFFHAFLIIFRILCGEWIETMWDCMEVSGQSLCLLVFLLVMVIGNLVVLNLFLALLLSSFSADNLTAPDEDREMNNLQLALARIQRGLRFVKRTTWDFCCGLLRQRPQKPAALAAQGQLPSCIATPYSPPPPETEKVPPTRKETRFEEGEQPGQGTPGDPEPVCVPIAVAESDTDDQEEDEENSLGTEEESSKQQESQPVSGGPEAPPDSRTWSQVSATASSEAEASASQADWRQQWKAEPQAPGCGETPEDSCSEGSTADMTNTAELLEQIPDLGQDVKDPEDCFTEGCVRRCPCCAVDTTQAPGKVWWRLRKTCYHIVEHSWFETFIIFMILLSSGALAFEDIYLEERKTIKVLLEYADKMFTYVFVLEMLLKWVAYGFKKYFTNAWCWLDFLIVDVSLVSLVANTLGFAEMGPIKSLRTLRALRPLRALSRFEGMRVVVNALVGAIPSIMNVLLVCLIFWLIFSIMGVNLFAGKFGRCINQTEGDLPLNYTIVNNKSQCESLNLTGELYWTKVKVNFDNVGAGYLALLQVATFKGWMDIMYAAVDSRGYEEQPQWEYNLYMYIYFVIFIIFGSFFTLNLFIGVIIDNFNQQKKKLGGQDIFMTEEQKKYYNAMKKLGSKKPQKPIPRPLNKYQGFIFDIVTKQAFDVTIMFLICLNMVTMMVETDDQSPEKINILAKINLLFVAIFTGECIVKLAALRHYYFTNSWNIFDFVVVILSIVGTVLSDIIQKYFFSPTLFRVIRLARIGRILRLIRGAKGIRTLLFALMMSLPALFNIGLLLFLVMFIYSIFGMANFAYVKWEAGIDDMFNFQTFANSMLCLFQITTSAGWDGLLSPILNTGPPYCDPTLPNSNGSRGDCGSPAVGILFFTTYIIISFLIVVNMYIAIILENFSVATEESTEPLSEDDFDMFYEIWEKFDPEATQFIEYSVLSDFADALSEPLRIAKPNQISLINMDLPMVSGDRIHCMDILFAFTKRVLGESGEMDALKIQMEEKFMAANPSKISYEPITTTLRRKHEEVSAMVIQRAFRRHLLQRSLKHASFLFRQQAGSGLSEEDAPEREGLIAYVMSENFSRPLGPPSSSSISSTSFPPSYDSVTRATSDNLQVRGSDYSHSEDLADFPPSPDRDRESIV

A word on the IC50: it is the concentration needed to halve the response being measured. Higher therefore signals weaker potency in that assay. The molecule `CCCCCCCCCCCC(=O)O` [LA, lauric acid] had an IC50 of 27.4 ± 12.8 µM.

The values above are taken from paper PMC11727701 (Drug Design, Development and Therapy, 2025).
